Here are results for 3 molecules from PMC4208844 (PLoS ONE, 2014).

For orientation: IC50 means the concentration that gives 50% inhibition.

Series [1] in a line: MTT cytotoxicity test in LS174T cells. The note with it: human. On the procedure: (§1) A transiently transfected LS174T human colon adenocarcinoma cells were used for assessment of PXR transcriptional activity. […] The reporter plasmid was transiently transfected to LS174T cells by lipofection (FuGENE 6). Cells were incubated for 24 h with tested compounds and/or vehicle (DMSO; 0.1% v/v), in the presence or absence of RIF (10 µM; LS174T cells). After the treatments, cells were lysed and luciferase activity was measured. In parallel, cell viability was determined by conventional MTT test [MTT = 3-(4,5-dimethylthiazol-2-yl)-2,5-diphenyltetrazolium bromide]; briefly: After the treatment, culture medium was replaced with fresh one and 100 µL of MTT reagent (5 mg/mL PBS) was added. Three hours later, the medium was removed, and cells were washed with PBS and lysed for 5 min with 1 mL of DMSO containing 1% ammonia. The lysate was diluted 20 times with DMSO (+1% ammonia) and absorbance at 540 nm was measured against blank (DMSO+1% ammonia) (TECAN, Schoeller Instruments LLC). Results were normalized to the control value (i.e. 100×A sample/A control) and expressed as percentage of control.
(Tetrazolium dyes change colour on reduction, which living cells bring about.)

The subject of series [2] is CYP3A4 protein. Description: CYP3A4 protein expression (Western blot) in HepG2 cells. It counts as cell-based, human. The note with it: 48 h. The method, then:
Human colon adenocarcinoma cells LS174T (ECACC No. 87060401) and human hepatocellular carcinoma cells HepG2 (ECACC No. 85011430) were purchased from ECACC and were cultured in as recommended by manufacturer. Primary human hepatocytes used in this study were obtained from two sources: (i) from multiorgan donors HH52 and […] (male; 71 years); the use of liver cells of donors HH52 and HH54 was approved by “Ethical committee at the Faculty Hospital Olomouc”, and it was in accordance with Transplantation law #285/2002 Sb; “Ethical committee at the Faculty Hospital Olomouc” waived the authors from obtaining consent from the next of kin, regarding human hepatocytes obtained from liver donors HH52 and HH54. (ii) long-term human hepatocytes in monolayer Batch HEP220770 (person) were purchased from Biopredic International (Biopredic International, Rennes, France). Cells were cultured in serum-free medium. Cultures were maintained at 37°C and 5% CO2 in a humidified incubator.
Total protein extracts were prepared as described elsewhere. SDS-PAGE gels (10%) were run according to the general procedure followed by the protein transfer onto PVDF membrane. The membrane was saturated with 5% non-fat dried milk. […] The density of bands was measured by densitometry.
(In general: Immunoblotting shows a protein as a band on a membrane.)

Series [3] relates to CYP3A4/5. In words: CYP3A4/5 catalytic activity, testosterone 6β-hydroxylation in human liver microsomes. The note with it: pH 7.4, probe testosterone (6β-hydroxylation). (Microsomes from liver hold many membrane-bound enzymes, among them those of drug oxidation.)
Series [4] concerns LS174T cells. Description: MTT cytotoxicity test in LS174T cells. The note with it: read-out: MTT test IC50 (cytotoxicity); LS174T cells; 24 h incubation. The method, then: as §1
Series [5] concerns the target T1, pregnane X receptor PXR (Homo sapiens, UniProt O75469).
T1 sequence (O75469 1-434): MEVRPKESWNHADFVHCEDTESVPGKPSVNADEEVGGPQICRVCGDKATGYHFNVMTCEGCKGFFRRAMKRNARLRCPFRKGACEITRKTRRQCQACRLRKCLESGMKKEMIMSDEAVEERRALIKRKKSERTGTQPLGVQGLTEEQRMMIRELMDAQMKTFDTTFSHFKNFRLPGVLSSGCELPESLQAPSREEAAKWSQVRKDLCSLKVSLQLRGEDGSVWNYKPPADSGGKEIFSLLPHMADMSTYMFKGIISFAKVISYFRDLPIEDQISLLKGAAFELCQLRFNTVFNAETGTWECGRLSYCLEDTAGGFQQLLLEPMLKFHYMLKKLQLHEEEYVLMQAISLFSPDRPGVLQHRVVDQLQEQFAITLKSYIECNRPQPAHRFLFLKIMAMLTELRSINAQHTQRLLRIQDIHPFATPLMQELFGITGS
The note with it: read-out: PXR antagonist IC50; transfected LS174T cells; 24 h; in the presence of RIF (10 µM).

SMILES strings stand for the structures.

For `CC(=O)N1CCN(c2ccc(OCC3COC(Cn4ccnc4)(c4ccc(Cl)cc4Cl)O3)cc2)CC1` (racemic) [(rac)-KET, ketoconazole], in series [1], the IC50 at 24 h amounted to 50.3 µM. In addition, in series [2], the “CYP3A4 protein induction (in words)” value was “did not find convincing induction”. In series [3], this molecule gave an activity at 10 µM of 3%.

Molecule `CC(=O)N1CCN(c2ccc(OC[C@@H]3CO[C@@](Cn4ccnc4)(c4ccc(Cl)cc4Cl)O3)cc2)CC1` [(−)-KET, (2S,4R)-(−)-KET] gave a half-inhibitory concentration (IC50) at 24 h in series [1] of 57.5 µM.

For `CC(=O)N1CCN(c2ccc(OC[C@H]3CO[C@](Cn4ccnc4)(c4ccc(Cl)cc4Cl)O3)cc2)CC1` [(+)-KET, (2R,4S)-(+)-KET], the half-inhibitory concentration (IC50) was 52.7 µM in series [4] and 41.2 µM in series [5].
